{"source": "BindingDB's records for doi:10.1021/jm050855s", "about": "(Glaxosmithkline, 2006)"}
{"assay": "Inhibition of HCV RNA replication in Huh7 cells", "units": {"EC50": "nM"}}
{"smiles": "CC(C)CCn1c(=O)c(C2=Nc3ccccc3S(=O)(=O)N2)c(O)c2ccccc21", "EC50": 417}
{"smiles": "O=c1c(C2=Nc3ccccc3S(=O)(=O)N2)c(O)c2ccccc2n1CCC1CC1", "note": "[1-(2-cyclopropylethyl)-3-(1,1-dioxo-1,4-dihydro-1-benzo[1,2,4]-thiadiazin-3-yl)-4-hydroxy-1H-quinolin-2-one]", "EC50": 152}
{"smiles": "CCCCn1c(=O)c(C2=NS(=O)(=O)c3ccccc3N2)c(O)c2ccccc21", "note": "[1-Butyl-3-(1,1-dioxo-1,4-dihydro-1lambda*6*-benzo[1,2,4]thiadiazin-3-yl)-4-hydroxy-1H-quinolin-2-one]", "EC50": 444}
{"smiles": "O=c1c(C2=Nc3ccccc3S(=O)(=O)N2)c(O)c2ccccc2n1CC1CCC1", "note": "[1-cyclobutylmethyl-3-(1,1-dioxo-1,2-dihydrobenzo[1,2,4]thiadiazin-3-yl)-4-hydroxy-1-1H-quinolin-2-one]", "EC50": 241}
{"smiles": "O=c1c(C2=Nc3ccccc3S(=O)(=O)N2)c(O)c2ccccc2n1-c1ccccc1", "note": "[3-(1,1-dioxo-1,2-dihydrobenzo[1,2,4]thiadiazin-3-yl)-4-hydroxy-1-phenyl-1Hquinolin-2-one]", "EC50": 774}
{"smiles": "Cc1ccc2c(c1)c(O)c(C1=Nc3ccccc3S(=O)(=O)N1)c(=O)n2CCC(C)C", "note": "[3-(1,1-dioxo-1,2-dihydrobenzo[1,2,4]thiadiazin-3-yl)-4-hydroxy-6-methyl-1-(3-methylbutyl)-1H-quinolin-2-one]", "EC50": 180}
{"smiles": "CC(C)CCn1c(=O)c(C2=Nc3ccccc3S(=O)(=O)N2)c(O)c2c(F)cccc21", "note": "[3-(1,1-dioxo-1,2-dihydrobenzo[1,2,4]thiadiazin-3-yl)-5-fluoro-4-hydroxy-1-(3-methylbutyl)-1H-quinolin-2-one]", "EC50": 381}
{"smiles": "CC(C)CCn1c(=O)c(C2=Nc3ccccc3S(=O)(=O)N2)c(O)c2cc(F)ccc21", "note": "[3-(1,1-dioxo-1,4-dihydro-1lambda*6*-benzo[1,2,4]thiadiazin-3-yl)-6-fluoro-4-hydroxy-1-(3-methyl-butyl)-1H-quinolin-2-one]", "EC50": 261}
{"smiles": "O=c1c(C2=Nc3ccccc3S(=O)(=O)N2)c(O)c2ccccc2n1Cc1ccoc1", "note": "[3-(1,1-dioxo-1,4-dihydrobenzo[1,2,4]thiadiazin-3-yl)-1-furan-3-ylmethyl-4-hydroxy-1H-quinolin-2-one]", "EC50": 389}
{"smiles": "CC(C)CCn1c(=O)c(C2=Nc3ccccc3S(=O)(=O)N2)c(O)c2cc(OCC(N)=O)ccc21", "note": "[4-[3-(1,1-dioxo-1,4-dihydrobenzo[1,2,4]thiadiazin-3-yl)-4-hydroxy-1-(3-methylbutyl)-2-oxo-1,2-dihydroquinolin-6-yloxy]acetamide]", "EC50": 511}
{"smiles": "CC(C)CCn1c(=O)c(C2=Nc3ccccc3S(=O)(=O)N2)c(O)c2cc(OCC#N)ccc21", "note": "[4-[3-(1,1-dioxo-1,4-dihydrobenzo[1,2,4]thiadiazin-3-yl)-4-hydroxy-1-(3-methylbutyl)-2-oxo-1,2-dihydroquinolin-6-yloxy]acetonitrile]", "EC50": 298}
{"smiles": "Nc1ccc2c(c1)c(O)c(C1=Nc3ccccc3S(=O)(=O)N1)c(=O)n2CCC1CC1", "note": "[6-Amino-1-(2-cyclopropylethyl)-3-(1,1-dioxo-1,4-dihydrobenzo[1,2,4]thiadiazin-3-]", "EC50": 157}
{"smiles": "CC(C)CCn1c(=O)c(C2=Nc3ccccc3S(=O)(=O)N2)c(O)c2cc(N)ccc21", "note": "[6-amino-3-(1,1-dioxo-1,2-dihydrobenzo[1,2,4]thiadiazin-3-yl)-4-hydroxy-1-(3-methylbutyl)-1H-quinolin-2-one]", "EC50": 274}
{"smiles": "CC(C)CCn1c(=O)c(C2=Nc3ccccc3S(=O)(=O)N2)c(O)c2cc(Cl)ccc21", "note": "[6-chloro-3-(1,1-dioxo-1,2-dihydrobenzo[1,2,4]thiadiazin-3-yl)-4-hydroxy-1-(3-methylbutyl)-1H-quinolin-2-one]", "EC50": 1200}
{"smiles": "CCOC(=O)CNc1ccc2c(c1)c(O)c(C1=Nc3ccccc3S(=O)(=O)N1)c(=O)n2CCC(C)C", "note": "[[3-(1,1-dioxo-1,4-dihydrobenzo[1,2,4]thiadiazin-3-yl)-4-hydroxy-1-(3-methylbutyl)-1H-dihydroquinolin-6-ylamino]acetic acid ethyl ester]", "EC50": 265}
{"smiles": "CC(C)CCn1c(=O)c(C2=Nc3ccccc3S(=O)(=O)N2)c(O)c2cc(NCC(=O)O)ccc21", "note": "[[3-(1,1-dioxo-1,4-dihydrobenzo[1,2,4]thiadiazin-3-yl)-4-hydroxy-1-(3-methylbutyl)-1H-dihydroquinolin-6-ylamino]acetic acid]", "EC50": 2490}
